Test results reported in patent US20120258980A1, “Antibacterial Agent for Drug-Resistant Bacteria, Method for Screening for Same, and Use of Same” (priority 2009, published 2012).
≈ marks a conversion by molar mass, not a printed value.

Tests used:
[1] = system: VISA clinical isolates of MRSA (VI-MRSA) and of MSSA (VI-MSSA); test: microbe, parasite or virus in culture; assay type: cell-based, Staphylococcus aureus
In short: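 Strains were grown overnight at 37° C in TSB, adjusted in CAMHB to 0.3 absorbance at 578 nm and diluted 500-fold before equal-volume addition to compound dilutions.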

VRSA clinical isolates = test: microbe, parasite or virus in culture; assay type: cell-based; conditions: Staphylococcus aureus
Experimental: (§1) Each of the bacterial strains listed in Table 1-1 was shake-cultured at 37° C. overnight in 4 mL of a medium (Tryptical Soy Broth: TSB, product of Becton Dickinson and Company). FDA209P was used as a control.
(§2) After completion of culturing, the resultant culture was suspended in a cation-adjusted Mueller Hinton Broth (CAMHB, product of Becton Dickinson and Company). Then, the obtained bacterial culture was adjusted in absorbance with the CAMHB so that the absorbance at 578 nm of the bacterial culture was adjusted to 0.3 measured by an absorption spectrometer. In addition, the resultant bacterial culture was 500-fold diluted with the CAMHB.
(§3) Each of the 500-fold diluted, pre-cultured bacterial cultures was added at 50 μL/well to the CAMHB containing the quinolones and the nybomycins at various concentrations (50 μL/well), followed by statically culturing at 37° C. overnight.
(§4) After completion of culturing, the growth of the bacteria was visually determined based on turbidity to measure MIC in each bacterial strain.
Here, the glycopeptides used were VCM and TEIC. The β-lactam used was OXA.

[2] = system: methicillin-susceptible S. aureus (MSSA), MRSA and mutants thereof; test: MIC measurement, Test Example 3 (MSSA, MRSA and sequential gyrA/grlA quinolone-resistant mutants); assay type: cell-based, Staphylococcus aureus; conditions: Staphylococcus aureus
Excerpt: That is, the first-step quinolone-resistant mutants are bacterial strains which are the same as their parent strains (clinical isolates) except that the genes shown in the corresponding parts of Table 1-1 are mutated. The second-step quinolone-resistant mutants are bacterial strains which are the same as the first-step quinolone-resistant mutants except that the genes shown in the corresponding parts of Table 1-1 are further mutated. The third-step quinolone-resistant mutants are bacterial strains which are the same as the second-step quinolone-resistant mutants except that the genes shown in the corresponding parts of Table 1-1 are further mutated. The fourth-step quinolone-resistant strain is a bacterial strain which is the same as the third-step quinolone-resistant mutant bacteria except that the gene shown in the corresponding part of Table 1-1 is further mutated.
as §1, §2, §3, §4

[3] = system: MRSA, CA-MRSA and MSSA of Staphylococcus aureus; test: MIC measurement, Test Example 4 (MRSA, CA-MRSA and MSSA strains); assay type: cell-based; conditions: Staphylococcus aureus
In short: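 S. aureus strains (FDA209P control) grown overnight in TSB at 37° C, resuspended in CAMHB, adjusted to A578 0.3 and diluted 500-fold. Equal volume added to CAMHB with serial compound concentrations, incubated statically overnight at 37° C. MIC read visually as lowest concentration without turbidity.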

Compound: CCn1cc(C(=O)O)c(=O)c2cc(F)c(N3CCNCC3)cc21 [NFLX, norfloxacin]
- MIC ([1]; Staphylococcus aureus, 99/3700-W, VI-MRSA, The United Kingdom): 64 µg/mL (≈ 200 µM)
- MIC ([1]; Staphylococcus aureus, 99/3759-V, VI-MRSA, The United Kingdom): 128 µg/mL (≈ 401 µM)
- MIC ([1]; Staphylococcus aureus, 28160, VI-MRSA, South African Republic): 64 µg/mL (≈ 200 µM)
- MIC ([1]; Staphylococcus aureus, 98141, VI-MRSA, France): 64 µg/mL (≈ 200 µM)
- MIC ([1]; Staphylococcus aureus, A7 (JCSC4842), VI-MRSA, Taiwan): 32 µg/mL (≈ 100 µM)
- MIC ([1]; Staphylococcus aureus, AMC11094, VI-MRSA, Korea): 128 µg/mL (≈ 401 µM)
- MIC ([1]; Staphylococcus aureus, B7 (JCSC4852), VI-MRSA, Taiwan): 64 µg/mL (≈ 200 µM)
- MIC ([1]; Staphylococcus aureus, BR1, VI-MRSA, Brazil): 128 µg/mL (≈ 401 µM)
- MIC ([1]; Staphylococcus aureus, BR2, VI-MRSA, Brazil): 64 µg/mL (≈ 200 µM)
- MIC ([1]; Staphylococcus aureus, BR3, VI-MRSA, Brazil): 64 µg/mL (≈ 200 µM)
- MIC ([1]; Staphylococcus aureus, BR4, VI-MRSA, Brazil): 128 µg/mL (≈ 401 µM)
- MIC ([1]; Staphylococcus aureus, BR5, VI-MRSA, Brazil): 128 µg/mL (≈ 401 µM)
- MIC ([1]; Staphylococcus aureus, HIP06297, VI-MRSA, America): 64 µg/mL (≈ 200 µM)
- MIC ([1]; Staphylococcus aureus, HIP06854, VI-MRSA, America): 128 µg/mL (≈ 401 µM)
- MIC ([1]; Staphylococcus aureus, HIP07920, VI-MRSA, America): 16 µg/mL (≈ 50.1 µM)
- MIC ([1]; Staphylococcus aureus, HIP07930, VI-MRSA, America): 128 µg/mL (≈ 401 µM)
- MIC ([1]; Staphylococcus aureus, HIP08926, VI-MRSA, America): 64 µg/mL (≈ 200 µM)
- MIC ([1]; Staphylococcus aureus, HIP09143, VI-MRSA, America): > 128 µg/mL
- MIC ([1]; Staphylococcus aureus, HIP09313, VI-MRSA, America): 32 µg/mL (≈ 100 µM)
- MIC ([1]; Staphylococcus aureus, HIP09433, VI-MRSA, America): > 128 µg/mL
- MIC ([1]; Staphylococcus aureus, HIP09662, VI-MRSA, America): 64 µg/mL (≈ 200 µM)
- MIC ([1]; Staphylococcus aureus, HIP09735, VI-MRSA, America): > 128 µg/mL
- MIC ([1]; Staphylococcus aureus, HIP09737, VI-MSSA, America): > 128 µg/mL
- MIC ([1]; Staphylococcus aureus, HIP09740, VI-MRSA, America): > 128 µg/mL
- MIC ([1]; Staphylococcus aureus, HIP10267, VI-MRSA, America): > 128 µg/mL
- MIC ([1]; Staphylococcus aureus, HIP10540, VI-MRSA, America): > 128 µg/mL
- MIC ([1]; Staphylococcus aureus, HIP12864, VI-MRSA, America): 64 µg/mL (≈ 200 µM)
- MIC ([1]; Staphylococcus aureus, HIP13036, VI-MRSA, America): 16 µg/mL (≈ 50.1 µM)
- MIC ([1]; Staphylococcus aureus, HIP13057, VI-MRSA, America): 128 µg/mL (≈ 401 µM)
- MIC ([1]; Staphylococcus aureus, IL (HIP7737), VI-MRSA, America): > 128 µg/mL
- MIC ([1]; Staphylococcus aureus, JCSC7193, VI-MRSA, Thailand): 64 µg/mL (≈ 200 µM)
- MIC ([1]; Staphylococcus aureus, JCSC7195, VI-MRSA, Thailand): 128 µg/mL (≈ 401 µM)
- MIC ([1]; Staphylococcus aureus, JCSC7203, VI-MRSA, Thailand): 64 µg/mL (≈ 200 µM)
- MIC ([1]; Staphylococcus aureus, LIM2, VI-MRSA, France): 128 µg/mL (≈ 401 µM)
- MIC ([1]; Staphylococcus aureus, LY-1999-01, VI-MSSA, Oman): 16 µg/mL (≈ 50.1 µM)
- MIC ([1]; Staphylococcus aureus, LY-1999-03, VI-MRSA, Oman): 64 µg/mL (≈ 200 µM)
- MIC ([1]; Staphylococcus aureus, MI (HIP5827), VI-MRSA, America): 128 µg/mL (≈ 401 µM)
- MIC ([1]; Staphylococcus aureus, MRSA / MSSA / NRS 76 / VISA, NRS76, VI-MSSA, America): 128 µg/mL (≈ 401 µM)
- MIC ([1]; Staphylococcus aureus, MRSA / MSSA / NRS 79 / VISA, NRS79, VI-MRSA, America): > 128 µg/mL
- MIC ([1]; Staphylococcus aureus, MRSA / MSSA / NRS 118 / VISA, NRS118, VI-MRSA, America): 128 µg/mL (≈ 401 µM)
- MIC ([1]; Staphylococcus aureus, MRSA / MSSA / NRS 126 / VISA, NRS126, VI-MRSA, America): 64 µg/mL (≈ 200 µM)
- MIC ([1]; Staphylococcus aureus, Mu3, VI-MRSA, Japan): 128 µg/mL (≈ 401 µM)
- MIC ([1]; Staphylococcus aureus, Mu50, VI-MRSA, Japan): 128 µg/mL (≈ 401 µM)
- MIC ([1]; Staphylococcus aureus, NJ (HIP5836), VI-MRSA, America): 128 µg/mL (≈ 401 µM)
- MIC ([1]; Staphylococcus aureus, P1V44, VI-MSSA, Belgium): 4 µg/mL (≈ 12.5 µM)
- MIC ([1]; Staphylococcus aureus, PC, VI-MRSA, America): 64 µg/mL (≈ 200 µM)
- MIC ([1]; Staphylococcus aureus, SA MER-S6, VI-MSSA, France): 2 µg/mL (≈ 6.26 µM)
- MIC ([1]; Staphylococcus aureus, SA MER-S12, VI-MSSA, France): 2 µg/mL (≈ 6.26 µM)
- MIC ([1]; Staphylococcus aureus, SA MER-S20, VI-MSSA, France): 0.5 µg/mL (≈ 1.57 µM)
- MIC (VRSA clinical isolates; VRS1, VRSA, Michigan): > 128 µg/mL
- MIC (VRSA clinical isolates; VRS2, VRSA, Pennsylvania): > 128 µg/mL
- MIC (VRSA clinical isolates; VRS3, VRSA, New York): 128 µg/mL (≈ 401 µM)
- MIC (VRSA clinical isolates; VRS4, VRSA, New York): 128 µg/mL (≈ 401 µM)
- MIC (VRSA clinical isolates; VRS5, VRSA, Michigan): > 128 µg/mL
- MIC (VRSA clinical isolates; VRS6, VRSA, Michigan): > 128 µg/mL
- MIC (VRSA clinical isolates; VRS7, VRSA, Michigan): > 128 µg/mL
- MIC ([2]; MR5867-2, second-step mutant, further gyrA S84L): 64 µg/mL (≈ 200 µM)
- MIC ([2]; MR5867-3, third-step mutant, further grlA S80F): > 128 µg/mL
- MIC ([2]; MR5867-4, fourth-step mutant, further gyrA E88K): > 128 µg/mL
- MIC ([3]; ATCC 29213 / MRSA / MSSA, ATCC 29213, MSSA): 1 µg/mL (≈ 3.13 µM)
- MIC ([3]; COL, MRSA): 1 µg/mL (≈ 3.13 µM)
- MIC ([3]; FDA209P / MRSA / MSSA, FDA209P, MSSA): 0.25 µg/mL (≈ 0.783 µM)
- MIC ([3]; ISA12-1, MRSA): 1 µg/mL (≈ 3.13 µM)
- MIC ([3]; ISA12-2, MRSA): 1 µg/mL (≈ 3.13 µM)
- MIC ([3]; ISA35-1, MRSA): 16 µg/mL (≈ 50.1 µM)
- MIC ([3]; ISA37-1, MSSA): 1 µg/mL (≈ 3.13 µM)
- MIC ([3]; ISA49-1, MSSA): 1 µg/mL (≈ 3.13 µM)
- MIC ([3]; ISA51-1, MSSA): 0.5 µg/mL (≈ 1.57 µM)
- MIC ([3]; ISA56-3, MRSA): 0.25 µg/mL (≈ 0.783 µM)
- MIC ([3]; ISA58-1, MRSA): 1 µg/mL (≈ 3.13 µM)
- MIC ([3]; ISA62-1, MRSA): 1 µg/mL (≈ 3.13 µM)
- MIC ([3]; ISA73-1, MSSA): 1 µg/mL (≈ 3.13 µM)
- MIC ([3]; KBSA32, MRSA): 0.5 µg/mL (≈ 1.57 µM)
- MIC ([3]; KBSA34, MRSA): 1 µg/mL (≈ 3.13 µM)
- MIC ([3]; KBSA72, MRSA): > 128 µg/mL
- MIC ([3]; KBSA96, MRSA): 128 µg/mL (≈ 401 µM)
- MIC ([3]; KBSA171, MRSA): > 128 µg/mL
- MIC ([3]; KSA24, MRSA): 128 µg/mL (≈ 401 µM)
- MIC ([3]; KSA31, MRSA): 32 µg/mL (≈ 100 µM)
- MIC ([3]; KSA36, MRSA): > 128 µg/mL
- MIC ([3]; MRSA / MSSA / NCTC 8325, NCTC 8325, MSSA): 1 µg/mL (≈ 3.13 µM)
- MIC ([3]; MRSA / MSSA / USA300, USA300 FPR3757, CA-MRSA): 32 µg/mL (≈ 100 µM)
- MIC ([3]; MW2, CA-MRSA): 0.5 µg/mL (≈ 1.57 µM)
- MIC ([3]; N315, MRSA): 1 µg/mL (≈ 3.13 µM)
